Reference: patent US12473291B2 (priority 2019, dated 2025)

How the values were obtained:
[1] = tested on: KM mice; assay: animal or person; format: in vivo; conditions: for 2ED50 duration / 2ED50 recovery time / Quality of recovery: KM mice; for 2ED50 duration / 2ED50 recovery time: single tail vein injection at 2×ED50; for 2ED50 duration: time from disappearance to recovery of righting reflex; for 2ED50 recovery time: time from recovery of righting reflex to free crawling; for ED50: Mus musculus, KM mice (male, 18-22 g), injection via the tail vein, disappearance of righting reflex, read-out: ED50; for duration and recovery time compared with remimazolam / effective dose compared with remimazolam: mice, tail vein, in words; for Quality of recovery: tail vein injection
[2] = tested on: SD rats; assay: animal or person; format: in vivo; conditions: for ED50: Rattus norvegicus, SD rats (male, 220-300 g), injection via the tail vein, disappearance of righting reflex, read-out: ED50; for 2ED50 duration / 2ED50 recovery time / Quality of recovery: SD rats; for 2ED50 duration / 2ED50 recovery time: single tail vein injection at 2×ED50; for 2ED50 duration: time from disappearance to recovery of righting reflex; for 2ED50 recovery time: time from recovery of righting reflex to free crawling; for Quality of recovery: tail vein injection; for duration and recovery time compared with remimazolam / effective dose compared with remimazolam: rats, tail vein, in words

SMILES | 2ED50 duration [1] [min] | 2ED50 recovery time [1] [min] | ED50 [1] [mg/kg] | duration and recovery time compared with remimazolam [1] | effective dose compared with remimazolam [1] | ED50 [2] [mg/kg] | 2ED50 duration [2] [min] | 2ED50 recovery time [2] [min] | Quality of recovery [2] | duration and recovery time compared with remimazolam [2] | effective dose compared with remimazolam [2] | Quality of recovery [1]
CCOC(=O)OC(C)OC(=O)CC[C@@H]1N=C(c2ccccn2)c2cc(Br)c(Br)cc2-n2c(C)cnc21 (stereo partly shown) [Example 16] | 1.57 | 1.23 | 15.7 | significantly shorter | significantly lower | 3.4 | 0.57 | 0.53 | + (“+” means <1 min) | significantly shorter | significantly lower | –
Cc1cnc2n1-c1cc(Br)c(Br)cc1C(c1ccccn1)=N[C@H]2CCC(=O)OC(C)OC(=O)OC(C)C (stereo partly shown) [Example 17] | 4.39 | 2.53 | 29.2 | – | – | 4.3 | 4.39 | 2.43 | ++ (“++” means 1-3 min) | – | – | ++ (“++” means 1-3 min)
COC(=O)C1(OC(=O)CC[C@@H]2N=C(c3ccccn3)c3cc(Br)c(Br)cc3-n3c(C)cnc32)CC1 [Example 18] | 5.09 | 2.49 | 30.1 | – | – | 4.8 | 4.49 | 2.58 | +++ (“+++” means 3-5 min) | – | – | +++ (“+++” means 3-5 min)
CCOC(=O)C1(OC(=O)CC[C@@H]2N=C(c3ccccn3)c3cc(Br)c(Br)cc3-n3c(C)cnc32)CC1 [Example 19] | 6.07 | 2.09 | 23.2 | – | – | 5.6 | 4.07 | 2.12 | +++ (“+++” means 3-5 min) | – | – | ++++ (“++++” means 5-10 min)
COC(=O)COC(=O)CC[C@@H]1N=C(c2ccccn2)c2cc(Br)c(Br)cc2-n2c(C)cnc21 [Example 20] | 4.47 | 2.43 | 31.4 | – | – | 4.7 | 3.47 | 2.49 | ++ (“++” means 1-3 min) | – | – | +++ (“+++” means 3-5 min)
CCOC(=O)COC(=O)CC[C@@H]1N=C(c2ccccn2)c2cc(Br)c(Br)cc2-n2c(C)cnc21 [Example 21] | 3.08 | 2.01 | 25.9 | – | – | 4.2 | 3.08 | 2.27 | ++ (“++” means 1-3 min) | – | – | ++ (“++” means 1-3 min)
COC(=O)C(C)OC(=O)CC[C@@H]1N=C(c2ccccn2)c2cc(Br)c(Br)cc2-n2c(C)cnc21 (stereo partly shown) [Example 22] | 5.58 | 2.18 | 30.7 | – | – | 4.3 | 3.28 | 2.46 | ++ (“++” means 1-3 min) | – | – | ++ (“++” means 1-3 min)
COC(=O)C(C)(C)OC(=O)CC[C@@H]1N=C(c2ccccn2)c2cc(Br)c(Cl)cc2-n2c(C)cnc21 [Example 24] | 1.50 | 1.02 | 12 | significantly shorter | significantly lower | 6.8 | 0.50 | 0.47 | + (“+” means <1 min) | significantly shorter | significantly lower | –
